The source of these data is patent publication US12679878B2, “CRF2 receptor agonists and their use in therapy” (SANOFI, priority 2020, dated 2026).

Values after ≈ are worked out from the molar mass of the structure shown. Where two headings read alike, the source gives them in different places. Starred links: 1 amine or outer side, 2 acyl side, 3 side chain; linkers in the order of their positions; H or OH if unused. Non-standard residues stand in square brackets, D forms with d. Residues, ends and D or L forms follow the SMILES beside them. Groups on a side chain read outwards from the residue. *: point of attachment. C16 diacid = O=C(O)CCCCCCCCCCCCCCC(=O)*; γGlu = O=C(O)[C@H](CCC(=O)[*:2])N[*:1]; Palmitoyl = CCCCCCCCCCCCCCCC(=O)*; Aib = CC(C)(N)C(=O)O

The target of one series is T1, CRF2R (Homo sapiens, UniProt Q13324).
T1 construct: expressed in transfected cells; host or cells: TeloHEAC
The experiment in a line: EC50 [nM] CRF2R. An excerpt:
Table printed on a drawing sheet, Fig. 3
Head of the field: EC50 [nM] CRF2R
The patent's description of the figure: FIG. 3: Representative sequences from peptides according to the invention with an optimized stability profile, wherein K[sema] stands for K[gGlu-C(O)(CH2)14CH3]
First copying reader's note: Second half (positions 13-38, C-term and activity) of the first table; the rows follow the same order, so the four rows of Peptide Seq. 1 are Patent Sequence N° 130, 171, 172 and 173.
Where the first naming reader finds the target: head: EC50 [nM] CRF2R

Series [1] can be described thus: In vitro plasma stability, human plasma (Example 19.11). The settings on record: 37° C. Also on record: dose or concentration left out as unconfirmed. Format: in vitro ADME. As to the method:
(§1) In vitro plasma metabolic stability was studied in male Sprague Dawley rats and human. Test compound were incubated […] for 2 hours at 37° C. At each time point (0, 0.25, 1 and 2 h), samples were prepared for analysis by means of a single step protein precipitation technique by adding 150 μL of ethanol, 0.1% formic acid to 50 μL aliquots of plasma. Samples were mixed by vortex for homogeneity and then subjected to centrifugation at 14000 rpm for 15 min. The supernatant (100 μL) was collected, diluted with 100 μL of water, 0.1% formic acid and analyzed by LC-HRMS (TripleTOF 6600+, AB Sciex). For each test compound, the area ratios at each time point were compared to the 0 h area ratio and converted to a percentage remaining.

Series [2] can be described thus: Buffer solubility by LC-UV, pH 7.4 phosphate and pH 4.5 acetate (Example 19.11). The format is physicochemical. Particulars: target 10 mg/mL. As for the experimental part: As for example 15 above, also the chemical stability of representative examples of these FA modified peptides has been assessed, using LC-UV instead of light scattering. Solubility and chemical stability were studied in 100 mM phosphate buffer (pH 7.4) and 100 mM acetate buffer (pH 4.5). Test compound powders were dissolved in both buffers at a target concentration of 10 mg/mL and incubated for 1 hour at room temperature. After centrifugation at 2500 rcf for 15 minutes, […] of supernatant was diluted with […] of the incubation buffer and analyzed by LC-UV (Acquity UPLC-DAD, Waters). Solubility was calculated by comparing the peak area of the test compound in the buffer sample with the peak area of the same compound dissolved at 0.5 mg/ml in water:acetonitrile 1:1, 0.1% formic acid.

The target of a further series is T2, CRF1R receptor (Homo sapiens, UniProt P34998).
T2 construct: host or cells: CHO-K1 clone 2
T2 sequence (P34998 24-415): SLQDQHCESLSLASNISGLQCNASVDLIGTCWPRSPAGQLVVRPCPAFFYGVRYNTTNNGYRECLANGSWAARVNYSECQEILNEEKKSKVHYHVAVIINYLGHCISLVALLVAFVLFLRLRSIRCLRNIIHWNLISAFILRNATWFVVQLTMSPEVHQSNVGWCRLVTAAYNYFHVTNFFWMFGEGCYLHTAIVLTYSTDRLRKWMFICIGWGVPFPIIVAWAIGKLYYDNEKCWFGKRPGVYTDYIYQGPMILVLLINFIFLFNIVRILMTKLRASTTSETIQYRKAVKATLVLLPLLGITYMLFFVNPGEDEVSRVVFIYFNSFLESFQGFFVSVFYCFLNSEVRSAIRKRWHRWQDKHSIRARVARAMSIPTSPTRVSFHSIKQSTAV
As to the kind of experiment: cAMP activity at anti-target CRF1R, CHO-K1 cell line clone 2 (Example 19.10). Format: cell-based. In short, it runs like this:
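The cAMP read-out used the same protocol as the previous assay, except that Sauvagine at 100 nM set the 100% activation control. Cells were CHO-K1 clone 2 overexpressing CRF1R, cultured in F12 medium with 10% FBS and G418 and stored frozen until use.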

Series [3] is described as follows: In vitro plasma stability, rat plasma (Example 19.11). Format: in vitro ADME, Sprague Dawley rats. Also on record: remaining at 2 h: dose or concentration left out as unconfirmed. The settings on record: male, Sprague Dawley, rat, plasma, 37° C. As to the method: as §1
A further series has as its target T3, human CRF2α receptor (Homo sapiens, UniProt Q13324).
T3 construct: expressed in transfected cells; host or cells: TeloHEAC
T3 sequence (Q13324 1-411): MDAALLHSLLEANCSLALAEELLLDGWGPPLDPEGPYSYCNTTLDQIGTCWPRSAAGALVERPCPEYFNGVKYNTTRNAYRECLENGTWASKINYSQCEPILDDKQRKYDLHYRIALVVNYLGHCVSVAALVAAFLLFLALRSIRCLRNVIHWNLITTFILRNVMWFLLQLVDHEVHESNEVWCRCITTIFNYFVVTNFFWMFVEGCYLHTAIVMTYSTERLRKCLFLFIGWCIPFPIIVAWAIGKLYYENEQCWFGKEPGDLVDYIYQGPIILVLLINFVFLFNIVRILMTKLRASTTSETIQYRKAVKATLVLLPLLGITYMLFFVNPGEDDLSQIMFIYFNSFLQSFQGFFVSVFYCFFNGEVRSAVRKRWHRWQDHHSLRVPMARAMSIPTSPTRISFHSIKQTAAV
The experiment in a line: cAMP agonism at human CRF2α receptor in TeloHEAC cells, FA modified peptides (Example 19.9). The format is cell-based. The settings on record: 0% HSA, relative to urocortin 2. In short, it runs like this:
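Efficacy and EC50 are referenced to 100 nM urocortin 2 as 100%, with cAMP measured as the 665/620 nm HTRF ratio after 1 h at room temperature. Compounds (0.5 mM DMSO stock, 16 twofold dilutions) acted 30 min at 37 °C on CRF2α-expressing TeloHEAC cells, buffer containing IBMX and 0% or 0.2% HSA.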

A word on the EC50: it is the concentration that produces a half-maximal response. At CRF2R, `CCCCCCCCCCCCCCCC(=O)N[C@@H](CCC(=O)NCCCC[C@H](NC(=O)[C@H](CC(C)C)NC(=O)CNC(=O)[C@@H](NC(=O)[C@@H]1CCCN1C(=O)[C@@H](NC(=O)[C@H](CC(=O)O)NC(=O)[C@H](CC(C)C)NC(=O)[C@H](CO)NC(=O)[C@H](CC(C)C)NC(=O)[C@@H](NC(=O)[C@@H](N)[C@@H](C)CC)C(C)C)C(C)C)[C@@H](C)CC)C(=O)N[C@@H](CCC(N)=O)C(=O)N[C@@H](CCCCN)C(=O)N[C@@H](CC(C)C)C(=O)N[C@@H](CC(C)C)C(=O)N[C@@H](CCCCN)C(=O)N[C@@H](CCC(N)=O)C(=O)N[C@@H](CCC(N)=O)C(=O)N[C@@H](CCCNC(=N)N)C(=O)N[C@@H](CCC(N)=O)C(=O)N[C@@H](CCCNC(=N)N)C(=O)N[C@@H](CCCCN)C(=O)N[C@@H](CCC(=O)O)C(=O)N[C@@H](CCCNC(=N)N)C(=O)N[C@@H](CCC(N)=O)C(=O)N[C@@H](CCC(N)=O)C(=O)N[C@@H](C)C(=O)N[C@@H](CCC(=O)O)C(=O)N[C@@H](CCCCN)C(=O)N[C@@H](CC(N)=O)C(=O)N[C@@H](C)C(=O)N[C@@H](CCCNC(=N)N)C(=O)N[C@H](C(=O)N[C@@H](CC(C)C)C(=O)N[C@@H](C)C(=O)N[C@@H](CCCNC(=N)N)C(=O)N[C@H](C(N)=O)C(C)C)[C@@H](C)CC)C(=O)O` [SEQ ID NO: 6] (H-IVLSLDVPIGLK([γGlu-Palmitoyl])QKLLKQQRQRKERQQAEKNARILARV-NH2) had an EC50 of 0.06 nM.

As to `CCCCCCCCCCCCCCCC(=O)N[C@@H](CCC(=O)NCCCC[C@H](NC(=O)[C@@H](NC(=O)[C@H](CCCCN)NC(=O)[C@@H](NC(=O)[C@@H]1CCCN1C(=O)[C@@H](NC(=O)[C@H](CC(=O)O)NC(=O)[C@H](CC(C)C)NC(=O)[C@H](CO)NC(=O)[C@H](CC(C)C)NC(=O)[C@@H](NC(=O)[C@@H](N)Cc1ccccc1)[C@@H](C)O)C(C)C)[C@@H](C)O)[C@@H](C)CC)C(=O)N[C@@H](CCC(N)=O)C(=O)N[C@@H](CCCCN)C(=O)N[C@@H](CC(C)C)C(=O)N[C@@H](CC(C)C)C(=O)N[C@@H](CCCCN)C(=O)N[C@@H](CCC(N)=O)C(=O)N[C@@H](CCC(=O)O)C(=O)N[C@@H](CCCCN)C(=O)N[C@@H](CCC(N)=O)C(=O)N[C@@H](CCCCN)C(=O)N[C@@H](CCCCN)C(=O)N[C@@H](CCC(N)=O)C(=O)N[C@@H](CCCNC(=N)N)C(=O)N[C@@H](CCC(N)=O)C(=O)N[C@@H](CCCCN)C(=O)N[C@@H](C)C(=O)N[C@@H](CCCCN)C(=O)N[C@H](C(=O)N[C@@H](C)C(=O)N[C@@H](C)C(=O)N[C@@H](CCC(N)=O)C(=O)N[C@H](C(=O)N[C@@H](CC(C)C)C(=O)N[C@@H](C)C(=O)N[C@@H](CCC(N)=O)C(=O)N[C@H](C(N)=O)C(C)C)[C@@H](C)CC)[C@@H](C)O)C(=O)O` [SEQ ID NO: 8] (H-FTLSLDVPTKIK([γGlu-Palmitoyl])QKLLKQEKQKKQRQKAKTAAQILAQV-NH2), the EC50 at CRF2R is 0.18 nM.

Molecule `CCCCCCCCCCCCCCCC(=O)N[C@@H](CCC(=O)NCCCC[C@H](NC(=O)[C@@H](NC(=O)[C@H](CCCCN)NC(=O)[C@@H](NC(=O)[C@@H]1CCCN1C(=O)[C@@H](NC(=O)[C@H](CC(=O)O)NC(=O)[C@H](CC(C)C)NC(=O)[C@H](CO)NC(=O)[C@H](CC(C)C)NC(=O)[C@@H](NC(=O)[C@@H](N)Cc1ccccc1)[C@@H](C)O)C(C)C)[C@@H](C)O)[C@@H](C)CC)C(=O)N[C@@H](CCC(N)=O)C(=O)N[C@@H](CCCCN)C(=O)N[C@@H](CC(C)C)C(=O)N[C@@H](CC(C)C)C(=O)N[C@@H](CCCCN)C(=O)N[C@@H](CCC(N)=O)C(=O)N[C@@H](CCC(=O)O)C(=O)N[C@@H](CCCCN)C(=O)N[C@@H](CCC(N)=O)C(=O)N[C@@H](CCCCN)C(=O)N[C@@H](CCCCN)C(=O)N[C@@H](CCC(N)=O)C(=O)N[C@@H](CCCNC(=N)N)C(=O)N[C@@H](CCC(N)=O)C(=O)N[C@@H](CCCCN)C(=O)N[C@@H](C)C(=O)N[C@@H](CCCCN)C(=O)N[C@H](C(=O)N[C@@H](C)C(=O)N[C@@H](CCCCN)C(=O)N[C@@H](CCC(N)=O)C(=O)N[C@H](C(=O)N[C@@H](CC(C)C)C(=O)N[C@@H](CCC(=O)O)C(=O)N[C@@H](CCC(N)=O)C(=O)N[C@H](C(N)=O)C(C)C)[C@@H](C)CC)[C@@H](C)O)C(=O)O` [SEQ ID NO: 9] (H-FTLSLDVPTKIK([γGlu-Palmitoyl])QKLLKQEKQKKQRQKAKTAKQILEQV-NH2) had an EC50 on CRF2R of 0.08 nM.

In general, amount remaining refers to the share of the starting amount still present when the sample was taken. Broadly, the solubility is the dissolved amount per volume that the medium holds. One may read the Emax as the greatest response seen or fitted, relative to the assay's reference. For `CC[C@H](C)[C@H](N)C(=O)N[C@H](C(=O)N[C@@H](CC(C)C)C(=O)N[C@@H](CO)C(=O)N[C@@H](CC(C)C)C(=O)N[C@@H](CC(=O)O)C(=O)N[C@@H](C(=O)N1CCC[C@H]1C(=O)N[C@H](C(=O)NCC(=O)N[C@@H](CC(C)C)C(=O)N[C@@H](CCCCNC(=O)CC[C@H](NC(=O)CCCCCCCCCCCCCCC(=O)O)C(=O)O)C(=O)N[C@@H](CCC(N)=O)C(=O)N[C@H](C(=O)N[C@@H](CC(C)C)C(=O)N[C@@H](CC(C)C)C(=O)N[C@@H](CCCCN)C(=O)N[C@@H](CCC(N)=O)C(=O)N[C@@H](CCC(=O)O)C(=O)N[C@@H](CCCNC(=N)N)C(=O)N[C@@H](CCC(N)=O)C(=O)N[C@@H](CCCCN)C(=O)N[C@@H](CCCCN)C(=O)NC(C)(C)C(=O)N[C@@H](CCCNC(=N)N)C(=O)N[C@@H](CCC(=O)O)C(=O)N[C@@H](CCC(N)=O)C(=O)N[C@@H](C)C(=O)N[C@@H](CCC(=O)O)C(=O)N[C@H](C(=O)N[C@@H](CC(N)=O)C(=O)N[C@@H](CCCCN)C(=O)N[C@@H](CCCNC(=N)N)C(=O)N[C@H](C(=O)N[C@@H](CC(C)C)C(=O)N[C@@H](CCC(=O)O)C(=O)N[C@@H](CCCNC(=N)N)C(=O)N[C@H](C(N)=O)C(C)C)[C@@H](C)CC)[C@@H](C)O)[C@@H](C)CC)[C@@H](C)CC)C(C)C)C(C)C` [compound 193] (H-IVLSLD[dV]PIGLK([γGlu-C16 diacid])QILLKQERQKK[Aib]REQAETNKRILERV-NH2), the amount remaining at 2 h in series [1] was found to be 80%; in series [3] it was 84%. In addition, the solubility at 1 h in series [2] (pH 4.5, 100 mM acetate buffer) is 8600 µg/mL (≈ 1770 µM); in series [2] (pH 7.4, 100 mM phosphate buffer), 100 µg/mL (≈ 20.6 µM). The EC50 at CRF1R receptor (0% HSA, CRF1R CHO-K1 clone 2, read-out: EC50 [nM] 0% HSA) was more than 100 nM; at CRF1R receptor (Table 20 side-to-side comparison, read-out: CRF1 EC50), more than 100 nM; on human CRF2α receptor it was 0.82 nM. The Emax at CRF1R receptor (100% = Sauvagine at 100 nM, CRF1R CHO-K1 clone 2) amounted to 8.77%. For the same molecule, on CRF1R receptor (ratio of CRF1 EC50 to CRF2 EC50), the CRF1/CRF2 ratio is recorded as more than 500.
